Patent US20070161665A1, “Cancer treatment method” (priority 2003, published 2007)

Experiments:
HN5 cells = assay: Roche Cell Death ELISAPlus apoptosis assay in HN5 cells (median effect and sensitization ratio analysis); type: cell-based; details: HN5, 5 μM GW589522A 24 h
Method: HN5 cells are LICR-LON-HN5 head and neck carcinoma cells, which were a gift from the Institute of Cancer Research, Surrey, U.K.
(§1) Cell lines were grown in RPMI-1640 supplemented with 25 mM HEPES, 10 mM glutamine and 10% fetal bovine serum and maintained at 37° C. and 5% CO2 in a humid incubator. Assays were performed in 96 well microtiter plates with optimum seeding densities for each cell line.
(§2) Apoptosis was measured using the Roche Cell Death ELISA^Plus kit (catalog 1 774 425) which detects fragmented nucleosomal DNA that is generated during apoptosis.
Synergistic interaction between compounds was analyzed by the median effect method described by Chou and Talalay (Adv. Enzyme Regul. 22: 27-55, 1984). Briefly, if the two compounds fit the mutually exclusive model of Chou, one calculates the combination index (CI) using the formula CI=((D)1/(Dx)1)+((D)2/(Dx)2) (1) where (D)1 is the concentration of drug 1 in the combination that gives “x” percent apoptosis, (D)2 is the same for drug 2, and (Dx)1 and (Dx)2 are the concentrations of drug 1 or 2 that give “x” percent apoptosis when used alone. (D)1 and (D)2 are known from the composition of the combination and (Dx)1 and (Dx)2 can be calculated from the equation Dx=Dm*[fa/(1−fa)]^1/m (2) where Dm is the concentration of drug giving 50% effect, fa is the fraction affected, and m is the slope from the median effect plot of log (fa/fu) where fu is the fraction unaffected versus log (D). A CI less than 1 indicates synergy, equal to 1 indicates additivity and greater than 1 antagonism.
Sensitization is measured as the ratio between observed and expected apoptosis or caspase activation from a combination of AKT kinase inhibitor and EGFR/erb inhibitor. The expected level of activity (Ae) is calculated by Ae=1−((1−A1)*(1−A2)) (3) where A1 and A2 are the activities of drugs 1 and 2 alone at the concentration used in the combination (Harvey, R. J., J. Theor. Biol. 74: 411-437, 1978).

T47D cells = assay: Roche Cell Death ELISAPlus apoptosis assay in T47D cells (sensitization ratio); type: cell-based, human; details: compound at 25 μM, combined with GW589522
Method: T47D cells are human breast ductal carcinoma cells originally obtained from the American Type Culture Collection.
as §1, §2
The expected level of activity (Ae) is calculated by Ae=1−((1−A1)*(1−A2)) (3) where A1 and A2 are the activities of drugs 1 and 2 alone at the concentration used in the combination (Harvey, R. J., J. Theor. Biol. 74: 411-437, 1978).
Apoptosis was measured using the Roche Cell Death ELISA^Plus kit, and the relative percentage of apoptosis was determined for each combination.

AKT1 = AKT1 (Homo sapiens, UniProt P31749); assay: Inhibition of AKT isoforms, enzyme IC50; type: biochemical
Sequence of AKT1 (P31749 whole entry, species assumed, canonical isoform): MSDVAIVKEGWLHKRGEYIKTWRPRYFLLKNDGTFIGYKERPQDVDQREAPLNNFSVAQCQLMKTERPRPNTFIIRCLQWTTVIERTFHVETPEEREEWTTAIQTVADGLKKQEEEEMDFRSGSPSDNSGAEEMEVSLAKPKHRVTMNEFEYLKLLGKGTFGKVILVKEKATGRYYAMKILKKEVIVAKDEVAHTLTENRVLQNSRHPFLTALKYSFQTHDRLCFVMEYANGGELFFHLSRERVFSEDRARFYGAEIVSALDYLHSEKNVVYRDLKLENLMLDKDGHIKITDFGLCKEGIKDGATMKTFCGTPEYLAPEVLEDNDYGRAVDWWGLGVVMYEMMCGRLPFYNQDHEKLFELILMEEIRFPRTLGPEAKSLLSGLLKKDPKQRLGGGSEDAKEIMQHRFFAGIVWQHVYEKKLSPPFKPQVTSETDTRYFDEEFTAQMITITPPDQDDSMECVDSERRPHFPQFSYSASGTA

AKT2 = AKT2 (Homo sapiens, UniProt P31751); assay: Inhibition of AKT isoforms, enzyme IC50; type: biochemical
Sequence of AKT2 (P31751 whole entry, species assumed, canonical isoform): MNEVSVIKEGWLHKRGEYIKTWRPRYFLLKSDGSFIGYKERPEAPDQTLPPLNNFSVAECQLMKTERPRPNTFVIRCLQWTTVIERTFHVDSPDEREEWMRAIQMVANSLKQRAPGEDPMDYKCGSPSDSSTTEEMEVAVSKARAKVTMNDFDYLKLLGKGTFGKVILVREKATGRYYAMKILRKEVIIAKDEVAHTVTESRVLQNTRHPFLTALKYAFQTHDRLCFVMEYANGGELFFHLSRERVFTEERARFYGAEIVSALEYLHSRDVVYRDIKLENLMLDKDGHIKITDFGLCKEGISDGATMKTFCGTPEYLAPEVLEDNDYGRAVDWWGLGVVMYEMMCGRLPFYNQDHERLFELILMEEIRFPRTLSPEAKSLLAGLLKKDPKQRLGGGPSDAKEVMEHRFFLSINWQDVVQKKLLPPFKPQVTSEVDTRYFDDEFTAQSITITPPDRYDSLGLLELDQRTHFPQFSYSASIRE

AKT3 = AKT3 (Homo sapiens, UniProt Q9Y243); assay: Inhibition of AKT isoforms, enzyme IC50; type: biochemical
Sequence of AKT3 (Q9Y243 whole entry, species assumed, canonical isoform): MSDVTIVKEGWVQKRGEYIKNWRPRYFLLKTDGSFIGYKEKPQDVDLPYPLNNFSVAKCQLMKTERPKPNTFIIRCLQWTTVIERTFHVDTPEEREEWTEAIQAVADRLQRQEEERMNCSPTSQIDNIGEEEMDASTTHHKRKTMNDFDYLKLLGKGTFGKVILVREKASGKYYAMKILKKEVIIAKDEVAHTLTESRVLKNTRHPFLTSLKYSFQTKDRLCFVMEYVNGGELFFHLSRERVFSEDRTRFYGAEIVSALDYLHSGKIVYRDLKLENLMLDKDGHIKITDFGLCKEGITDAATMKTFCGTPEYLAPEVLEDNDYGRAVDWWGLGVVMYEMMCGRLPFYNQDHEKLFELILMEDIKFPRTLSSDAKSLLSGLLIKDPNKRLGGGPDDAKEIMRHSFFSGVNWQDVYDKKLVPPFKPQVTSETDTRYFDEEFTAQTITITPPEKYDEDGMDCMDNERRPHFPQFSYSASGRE

Structure (SMILES)	Sensitization Ratio in HN5 with 5 μM GW589522A (HN5 cells; then compound 25 μM 4 h)	SR (sensitization ratio) (T47D cells)	IC50 (AKT1)	IC50 (AKT2)	IC50 (AKT3)	Sensitization Ratio in HN5 with 5 μM GW589522A (HN5 cells; then compound 5 μM 4 h)	Sensitization Ratio in HN5 with 5 μM GW589522A (HN5 cells; then compound 4 h, concentration not given)
Nc1nonc1-c1nc2c(-c3cccc(Cl)c3)ncc(C(=O)NCCNCc3ccccc3)c2n1CC1CC1.O=C(O)C(F)(F)F [Ex 8, 2-(4-amino-1,2,5-oxadiazol-3-yl)-4-(3-chlorophenyl)-1-(cyclopropylmethyl)-N-{2-[(phenylmethyl)amino]ethyl}-1H-imidazo[4,5-c]pyridine-7-carboxamide, trifluoroacetate salt]	27 @ 25	7.1	8320 nM	7940 nM	450 nM		
CCn1c(-c2nonc2N)nc2c(-c3ccccc3)ncc(OCCCN)c21.O=C(O)C(F)(F)F [Ex 13, 4-{7-[(3-aminopropyl)oxy]-1-ethyl-4-phenyl-1H-imidazo[4,5-c]pyridin-2-yl}-1,2,5-oxadiazol-3-amine trifluoroacetate]			40 nM	20 nM	10 nM	12 @ 5	
CCn1c(-c2nonc2N)nc2cncc(OCC3CCNCC3)c21 [Ex 14, 4-[1-Ethyl-7-(piperidin-4-ylmethoxy)-1H-imidazo[4,5-c]pyridin-2-yl]-furazan-3-ylamine]			70 nM	270 nM	510 nM		4.5 @
